# From article PMC10140010 (Investigational New Drugs, 2023)
# Several values for one entry are separate records, joined by “and”; a condition that tells them apart may be missing. Equal values may be shown once.
# Tests used:
# EGFR^L858R/T790M = EGFR^L858R/T790M (Homo sapiens, UniProt P00533, L858R/T790M); assay: HTRF kinase activity assay
# Protocol: After the kinase proteins, Ulight-peptide species, adenosine triphosphate (ATP), and compound were mixed, the reaction was carried out at room temperature. Reactions were quenched by the addition of ethylene diamine tetraacetic acid buffer containing Eu antibody and XL665-streptavidin at the indicated time points. Plate reading was performed using an Envision (Perkin Elmer, MA, USA) multifunctional microplate reader.
# [1] = set-up: method as in PMID 35087031; settings: 180 mg, once daily, patients; cited from earlier work
# CDK2 = CDK2 (Homo sapiens, UniProt P24941); assay: Z'-LYTE kinase selectivity; type: biochemical
# P38 alpha = P38 alpha (Homo sapiens, UniProt Q16539); assay: Z'-LYTE kinase selectivity; type: biochemical
# P38 alpha, sequence (Q16539 whole entry): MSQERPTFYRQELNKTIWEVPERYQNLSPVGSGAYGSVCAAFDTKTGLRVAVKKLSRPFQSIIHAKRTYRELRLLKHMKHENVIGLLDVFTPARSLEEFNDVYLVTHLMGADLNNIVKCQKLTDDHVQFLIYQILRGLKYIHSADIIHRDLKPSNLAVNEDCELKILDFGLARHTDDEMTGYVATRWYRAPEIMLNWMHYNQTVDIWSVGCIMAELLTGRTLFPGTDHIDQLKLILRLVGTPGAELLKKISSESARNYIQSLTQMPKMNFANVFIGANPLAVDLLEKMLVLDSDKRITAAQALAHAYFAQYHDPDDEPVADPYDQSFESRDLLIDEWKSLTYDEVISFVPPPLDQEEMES
# PDK1 = PDK1 (Homo sapiens, UniProt O15530); assay: Z'-LYTE kinase selectivity; type: biochemical; settings: read-out: IC50 PDK1
# CK1 alpha = CK1 alpha (Homo sapiens, UniProt P48729); assay: Z'-LYTE kinase selectivity; type: biochemical
# CK1 alpha, sequence (P48729 whole entry): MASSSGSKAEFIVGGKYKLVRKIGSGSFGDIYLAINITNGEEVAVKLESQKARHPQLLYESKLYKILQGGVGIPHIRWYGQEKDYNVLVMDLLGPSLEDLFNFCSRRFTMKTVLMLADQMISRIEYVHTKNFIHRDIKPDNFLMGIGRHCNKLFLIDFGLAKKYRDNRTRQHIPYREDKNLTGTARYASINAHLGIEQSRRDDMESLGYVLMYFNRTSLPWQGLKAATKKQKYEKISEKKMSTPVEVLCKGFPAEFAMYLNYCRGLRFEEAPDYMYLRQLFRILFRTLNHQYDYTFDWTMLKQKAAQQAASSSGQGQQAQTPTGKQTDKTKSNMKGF
# [2] = test system: LU-01-0015 (HIP-ALK) patient derived lung-tumor xenografts; assay: LU-01-0015 patient-derived xenograft model (tumor volume, body weight); type: in vivo, BALB/c nude mice; settings: for Tumor volume Mean: group mean; for Tumor volume: individual mouse, in mm³
# Protocol: Female BALB/c nude mice (4–6 weeks old) were provided by Shanghai Sipple-Bikai Laboratory Animal Co., Ltd. and Beijing Vital River Laboratory Animal Technology Co., Ltd. The mice were housed in a specific pathogen-free environment under a 12 h light/dark cycle, and had free access to sterile animal feed and water.
# PDX and CDX models were used for in vivo studies. Patient-derived tumors tissues were divided into about 30 mm^3 and transplanted into the right dorsal subcutis. Treatment began when the tumor size reached to 200 mm^3. The mice were randomly assignied into the corresponding dosing groups (9 mice in each group). Drugs were deliverd via daily oral for 4 weeks. Tumor size was measured periodically using a digital caliper (Cal Pro, Sylvac, Switzerland), and tumor volume was calculated as 0.5 × length × width^2. For more detailed information, please refer to Supplementary materials. All procedures and protocols of xenograft models were approved by the Institutional Animal Care and Use Committee of WuXi AppTec.
# Patient-derived tumor tissue was segmented into small pieces of approximately 20–30 mm^3 and transplanted subcutaneously into the right back of mice. When the tumor volume reached 150-200 mm^3, the mice were randomly divided into corresponding groups (9 mice in each group, female). Administered by gavage once daily for 4 weeks.
# MAPKAPK2 = MAPKAPK2 (Homo sapiens, UniProt P49137); assay: Z'-LYTE kinase selectivity; type: biochemical
# MAPKAPK2, sequence (P49137 whole entry): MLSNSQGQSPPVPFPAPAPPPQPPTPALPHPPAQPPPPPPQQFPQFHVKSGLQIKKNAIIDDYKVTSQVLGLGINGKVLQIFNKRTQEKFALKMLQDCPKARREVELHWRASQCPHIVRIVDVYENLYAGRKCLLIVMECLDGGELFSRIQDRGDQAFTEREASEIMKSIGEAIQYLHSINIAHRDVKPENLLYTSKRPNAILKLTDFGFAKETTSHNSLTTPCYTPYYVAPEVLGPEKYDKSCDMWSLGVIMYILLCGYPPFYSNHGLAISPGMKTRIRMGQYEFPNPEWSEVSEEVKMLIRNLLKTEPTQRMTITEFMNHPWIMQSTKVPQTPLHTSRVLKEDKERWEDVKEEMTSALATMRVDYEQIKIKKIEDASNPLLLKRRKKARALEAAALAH
# P-gp = target: T1, P-gp (Homo sapiens, UniProt P08183); assay: ABC efflux transporter inhibitor test on Caco-2 cells (digoxin efflux); type: in vitro ADME
# T1 construct: endogenous in cells; host or cells: Caco-2
# T1 sequence (P08183 whole entry): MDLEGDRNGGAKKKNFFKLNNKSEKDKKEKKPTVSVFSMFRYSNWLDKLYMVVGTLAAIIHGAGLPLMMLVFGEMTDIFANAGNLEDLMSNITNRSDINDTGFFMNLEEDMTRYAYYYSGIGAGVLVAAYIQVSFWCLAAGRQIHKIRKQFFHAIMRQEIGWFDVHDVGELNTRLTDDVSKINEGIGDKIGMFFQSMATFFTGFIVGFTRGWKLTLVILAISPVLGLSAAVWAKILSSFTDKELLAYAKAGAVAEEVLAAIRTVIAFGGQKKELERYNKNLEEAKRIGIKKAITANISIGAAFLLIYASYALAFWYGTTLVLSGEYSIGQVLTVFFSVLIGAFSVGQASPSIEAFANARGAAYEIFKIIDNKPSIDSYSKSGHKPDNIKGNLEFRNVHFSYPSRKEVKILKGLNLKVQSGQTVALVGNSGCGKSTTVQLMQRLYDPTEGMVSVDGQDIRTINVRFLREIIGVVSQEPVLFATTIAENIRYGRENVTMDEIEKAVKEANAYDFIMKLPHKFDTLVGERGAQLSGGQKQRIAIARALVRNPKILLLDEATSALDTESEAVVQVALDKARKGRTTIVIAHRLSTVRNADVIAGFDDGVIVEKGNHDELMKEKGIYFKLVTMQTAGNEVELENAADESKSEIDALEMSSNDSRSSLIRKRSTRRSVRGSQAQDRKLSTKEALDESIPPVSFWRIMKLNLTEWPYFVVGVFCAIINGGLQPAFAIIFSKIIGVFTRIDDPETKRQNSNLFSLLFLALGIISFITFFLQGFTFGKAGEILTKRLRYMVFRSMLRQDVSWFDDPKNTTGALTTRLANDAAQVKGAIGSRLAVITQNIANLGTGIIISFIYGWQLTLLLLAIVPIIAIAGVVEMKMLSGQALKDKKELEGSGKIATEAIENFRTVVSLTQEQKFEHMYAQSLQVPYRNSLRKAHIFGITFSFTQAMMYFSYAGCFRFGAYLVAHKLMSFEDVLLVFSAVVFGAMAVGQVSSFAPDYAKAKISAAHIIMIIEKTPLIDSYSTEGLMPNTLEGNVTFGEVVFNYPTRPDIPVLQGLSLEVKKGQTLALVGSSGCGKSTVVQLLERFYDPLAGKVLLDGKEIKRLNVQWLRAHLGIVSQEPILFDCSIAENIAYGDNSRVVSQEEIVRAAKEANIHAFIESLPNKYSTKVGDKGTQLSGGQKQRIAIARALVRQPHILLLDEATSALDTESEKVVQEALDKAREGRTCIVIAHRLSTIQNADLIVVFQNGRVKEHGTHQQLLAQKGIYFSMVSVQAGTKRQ
# ABL = ABL (Homo sapiens, UniProt P00519); assay: Z'-LYTE kinase selectivity; type: biochemical
# ABL, sequence (P00519 whole entry): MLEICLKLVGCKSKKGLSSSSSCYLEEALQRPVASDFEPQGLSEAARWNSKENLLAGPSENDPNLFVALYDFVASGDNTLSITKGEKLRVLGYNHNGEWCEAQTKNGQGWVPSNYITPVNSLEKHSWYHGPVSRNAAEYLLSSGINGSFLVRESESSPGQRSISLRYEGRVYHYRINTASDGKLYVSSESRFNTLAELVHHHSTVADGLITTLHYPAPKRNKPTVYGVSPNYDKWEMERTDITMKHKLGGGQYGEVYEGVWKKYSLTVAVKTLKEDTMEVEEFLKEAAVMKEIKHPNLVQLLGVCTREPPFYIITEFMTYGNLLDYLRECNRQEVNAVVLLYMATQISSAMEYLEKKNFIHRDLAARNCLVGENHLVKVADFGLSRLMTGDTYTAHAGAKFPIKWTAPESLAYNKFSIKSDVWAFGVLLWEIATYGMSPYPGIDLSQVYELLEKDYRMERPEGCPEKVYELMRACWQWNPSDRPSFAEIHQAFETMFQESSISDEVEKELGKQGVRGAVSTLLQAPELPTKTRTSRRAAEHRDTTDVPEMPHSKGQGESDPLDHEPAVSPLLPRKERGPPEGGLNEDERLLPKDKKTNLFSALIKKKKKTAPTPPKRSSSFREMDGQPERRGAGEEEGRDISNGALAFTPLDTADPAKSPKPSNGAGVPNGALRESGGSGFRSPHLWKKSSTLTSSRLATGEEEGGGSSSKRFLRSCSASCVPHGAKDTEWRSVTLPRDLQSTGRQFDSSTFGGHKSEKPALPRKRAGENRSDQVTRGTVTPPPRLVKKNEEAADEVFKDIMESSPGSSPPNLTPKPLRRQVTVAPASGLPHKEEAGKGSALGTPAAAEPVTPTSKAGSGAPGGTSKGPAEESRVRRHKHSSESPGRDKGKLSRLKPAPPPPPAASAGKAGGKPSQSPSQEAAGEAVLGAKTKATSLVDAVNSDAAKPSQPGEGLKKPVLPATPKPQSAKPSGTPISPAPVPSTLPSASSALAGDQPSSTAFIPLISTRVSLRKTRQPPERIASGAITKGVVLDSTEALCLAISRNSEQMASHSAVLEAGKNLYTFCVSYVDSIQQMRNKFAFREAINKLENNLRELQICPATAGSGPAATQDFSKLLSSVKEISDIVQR
# [3] = test system: phosphorylation of ALK, AKT, ERK, STAT3 and STAT5 in NCI-H3122 tumor tissue; assay: Phosphorylation of downstream signal molecules in tumor tissue of NCI-H3122 xenograft; type: in vivo, BALB/c nude mice; settings: 8 h after administration
# Protocol: In general, the cells were exposed to the drug and were harvested for western blot analysis. SDS-PAGE was used to separate the proteins of interest, which were then transferred to a nitrocellulose (NC) filtration membrane and soaked in a blocking solution [5% non-fat dry milk in tris-buffered saline with Tween 20 (TBST)] for 1 h at room temperature. Thereafter, the membrane was probed overnight with primary antibodies at 4℃ and washed three times with TBST. The corresponding secondary antibody diluent was added, incubated at room temperature for 1 h, and washed 3 times with TBST. After adding the enhanced chemiluminescence developer to the NC filtration membrane, it is developed in the imaging system (ChemiDoc™ XRS^+, BIO-RAD). See Supplementary Table 2 for details of the antibodies used.
# In order to check how iruplinalkib exerts its anti-tumor effects in vivo, tumor tissue samples were collected at 1 and 8 h after the last dose, and the phosphorylation level of downstream signaling pathways molecules were detected.
# CYP3A4 = assay: Hepatic enzyme induction in human hepatocytes (gene expression); type: in vitro ADME
# Protocol: Human hepatocytes derived from three donors were used for evaluating for hepatic enzyme inducing activity. […] The gene expression related to cytochrome P450 isoenzyme CYP3A4 in hepatocytes of one of the three donors increased with iruplinalkib 1 µM.
# MINK = MINK (Homo sapiens, UniProt Q8N4C8); assay: Z'-LYTE kinase selectivity; type: biochemical
# MINK, sequence (Q8N4C8 whole entry): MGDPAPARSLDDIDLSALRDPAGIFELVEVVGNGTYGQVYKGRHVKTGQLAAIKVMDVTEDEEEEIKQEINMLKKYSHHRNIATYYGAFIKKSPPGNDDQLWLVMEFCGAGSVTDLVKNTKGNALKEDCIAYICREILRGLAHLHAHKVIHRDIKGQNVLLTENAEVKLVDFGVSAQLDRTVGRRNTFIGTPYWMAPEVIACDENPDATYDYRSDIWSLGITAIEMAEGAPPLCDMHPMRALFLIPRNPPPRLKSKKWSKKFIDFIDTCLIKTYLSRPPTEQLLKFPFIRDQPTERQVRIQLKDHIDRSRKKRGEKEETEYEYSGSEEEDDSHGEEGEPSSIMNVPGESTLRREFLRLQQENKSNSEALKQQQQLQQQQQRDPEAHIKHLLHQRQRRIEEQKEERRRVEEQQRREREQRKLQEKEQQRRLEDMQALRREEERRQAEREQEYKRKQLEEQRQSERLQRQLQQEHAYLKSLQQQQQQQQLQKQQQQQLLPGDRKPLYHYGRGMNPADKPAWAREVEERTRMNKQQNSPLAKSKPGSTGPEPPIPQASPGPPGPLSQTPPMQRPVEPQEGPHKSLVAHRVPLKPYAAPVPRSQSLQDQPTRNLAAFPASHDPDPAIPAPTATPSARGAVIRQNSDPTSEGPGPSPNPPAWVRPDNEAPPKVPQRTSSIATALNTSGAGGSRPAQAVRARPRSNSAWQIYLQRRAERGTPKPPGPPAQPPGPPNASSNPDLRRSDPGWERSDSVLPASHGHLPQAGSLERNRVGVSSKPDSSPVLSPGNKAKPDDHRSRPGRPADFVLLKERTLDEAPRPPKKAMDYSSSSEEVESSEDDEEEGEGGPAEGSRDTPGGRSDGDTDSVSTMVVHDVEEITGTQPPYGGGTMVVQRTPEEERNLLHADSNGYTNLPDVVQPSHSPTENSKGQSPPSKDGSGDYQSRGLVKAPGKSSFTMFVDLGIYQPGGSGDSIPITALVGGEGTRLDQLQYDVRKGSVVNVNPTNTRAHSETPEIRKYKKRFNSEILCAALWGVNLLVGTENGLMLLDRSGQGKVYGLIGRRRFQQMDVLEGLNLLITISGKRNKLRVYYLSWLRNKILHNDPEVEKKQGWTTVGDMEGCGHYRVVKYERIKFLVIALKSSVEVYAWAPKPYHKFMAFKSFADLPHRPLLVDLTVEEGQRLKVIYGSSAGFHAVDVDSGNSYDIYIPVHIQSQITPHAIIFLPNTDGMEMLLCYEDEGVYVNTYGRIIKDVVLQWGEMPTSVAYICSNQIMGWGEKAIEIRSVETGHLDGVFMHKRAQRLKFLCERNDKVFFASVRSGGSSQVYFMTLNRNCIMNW
# [4] = 5 mg/kg PO QD×4 W, day 0 after administration
# [5] = 5 mg/kg PO QD×4 W, day 3 after administration
# [6] = 5 mg/kg PO QD×4 W, day 7 after administration
# [7] = 5 mg/kg PO QD×4 W, day 10 after administration
# [8] = 5 mg/kg PO QD×4 W, day 14 after administration
# [9] = 5 mg/kg PO QD×4 W, day 17 after administration
# [10] = 5 mg/kg PO QD×4 W, day 21 after administration
# [11] = 5 mg/kg PO QD×4 W, day 24 after administration
# [12] = 5 mg/kg PO QD×4 W, day 27 after administration
# [13] = 10 mg/kg (D0-D7)/2.5 mg/kg PO QD×4 W, day 0 after administration
# [14] = 10 mg/kg (D0-D7)/2.5 mg/kg PO QD×4 W, day 3 after administration
# [15] = 10 mg/kg (D0-D7)/2.5 mg/kg PO QD×4 W, day 7 after administration
# [16] = 10 mg/kg (D0-D7)/2.5 mg/kg PO QD×4 W, day 10 after administration
# [17] = 10 mg/kg (D0-D7)/2.5 mg/kg PO QD×4 W, day 14 after administration
# [18] = 10 mg/kg (D0-D7)/2.5 mg/kg PO QD×4 W, day 17 after administration
# [19] = 10 mg/kg (D0-D7)/2.5 mg/kg PO QD×4 W, day 21 after administration
# [20] = 10 mg/kg (D0-D7)/2.5 mg/kg PO QD×4 W, day 24 after administration
# [21] = 10 mg/kg (D0-D7)/2.5 mg/kg PO QD×4 W, day 27 after administration
# [22] = 15 mg/kg PO QD×4 W, day 0 after administration
# [23] = 15 mg/kg PO QD×4 W, day 3 after administration
# [24] = 15 mg/kg PO QD×4 W, day 7 after administration
# [25] = 15 mg/kg PO QD×4 W, day 10 after administration
# [26] = 15 mg/kg PO QD×4 W, day 14 after administration
# [27] = 15 mg/kg PO QD×4 W, day 17 after administration
# [28] = 15 mg/kg PO QD×4 W, day 21 after administration
# [29] = 15 mg/kg PO QD×4 W, day 24 after administration
# [30] = 15 mg/kg PO QD×4 W, day 27 after administration
# [31] = human, Caco-2 cells, probe digoxin (5 µM), read-out: Exhaust inhibition rate (%)
smiles,measurement,setting,value
COc1cc(N2CCC3(CCN(C)CC3)CC2)ccc1Nc1ncc(Cl)c(Nc2ccccc2P(C)(C)=O)n1 [Iruplinalkib],IC50,EGFR^L858R/T790M,0.0167 ± 0.00811 µM
same,"free steady-state average concentration (Cavg,ss)",[1],127 nM
same,IC50,CDK2,1.56 ± 1.13 µM
same,IC50,P38 alpha,> 10 µM
same,IC50,PDK1,> 10 µM
same,IC50,CK1 alpha,> 10 µM
same,Tumor volume Mean,[2]; [4],149 mm³
same,Tumor volume,[2]; [4],165
same,Tumor volume Mean,[2]; [5],127 mm³
same,Tumor volume,[2]; [5],165
same,Tumor volume Mean,[2]; [6],82 mm³
same,Tumor volume,[2]; [6],96
same,Tumor volume Mean,[2]; [7],79 mm³
same,Tumor volume,[2]; [7],80
same,Tumor volume Mean,[2]; [8],70 mm³
same,Tumor volume,[2]; [8],75
same,Tumor volume Mean,[2]; [9],81 mm³
same,Tumor volume,[2]; [9],96
same,Tumor volume Mean,[2]; [10],89 mm³
same,Tumor volume,[2]; [10],121
same,Tumor volume Mean,[2]; [11],85 mm³
same,Tumor volume,[2]; [11],118
same,Tumor volume Mean,[2]; [12],94 mm³
same,Tumor volume,[2]; [12],104
same,Tumor volume Mean,[2]; [13],150 mm³
same,Tumor volume,[2]; [13],136 and 117
same,Tumor volume Mean,[2]; [14],124 mm³
same,Tumor volume,[2]; [14],115 and 76
same,Tumor volume Mean,[2]; [15],77 mm³
same,Tumor volume,[2]; [15],71 and 51
same,Tumor volume Mean,[2]; [16],60 mm³
same,Tumor volume,[2]; [16],49 and 43
same,Tumor volume Mean,[2]; [17],63 mm³
same,Tumor volume,[2]; [17],48
same,Tumor volume Mean,[2]; [18],77 mm³
same,Tumor volume,[2]; [18],58
same,Tumor volume Mean,[2]; [19],107 mm³
same,Tumor volume,[2]; [19],56
same,Tumor volume Mean,[2]; [20],106 mm³
same,Tumor volume,[2]; [20],57
same,Tumor volume Mean,[2]; [21],127 mm³
same,Tumor volume,[2]; [21],65 and 99
same,Tumor volume Mean,[2]; [22],149 mm³
same,Tumor volume,[2]; [22],101 and 162 and 129 and 99 and 217 and 147 and 109 and 207 and 174
same,Tumor volume Mean,[2]; [23],115 mm³
same,Tumor volume,[2]; [23],81 and 117 and 84 and 63 and 150 and 118 and 79 and 154 and 190
same,Tumor volume Mean,[2]; [24],66 mm³
same,Tumor volume,[2]; [24],51 and 61 and 57 and 56 and 78 and 72 and 52 and 71 and 98
same,Tumor volume Mean,[2]; [25],54 mm³
same,Tumor volume,[2]; [25],48 and 61 and 44 and 35 and 63 and 79 and 45
same,Tumor volume Mean,[2]; [26],49 mm³
same,Tumor volume,[2]; [26],41 and 57 and 43 and 31 and 72 and 46 and 44 and 60
same,Tumor volume Mean,[2]; [27],51 mm³
same,Tumor volume,[2]; [27],44 and 92 and 41 and 24 and 68 and 47 and 32 and 42
same,Tumor volume Mean,[2]; [28],49 mm³
same,Tumor volume,[2]; [28],35 and 87 and 45 and 30 and 53 and 59 and 37 and 41 and 57
same,Tumor volume Mean,[2]; [29],43 mm³
same,Tumor volume,[2]; [29],29 and 56 and 37 and 23 and 45 and 53 and 34 and 22 and 91
same,Tumor volume Mean,[2]; [30],49 mm³
same,Tumor volume,[2]; [30],30 and 67 and 38 and 27 and 62 and 54 and 44 and 42 and 78
same,tumor growth inhibition,"[2]; LU-01-0015 and NCI-H3122 xenograft models, all P < 0.05",able to inhibit tumor growth
same,tumor inhibition effect compared with brigatinib,[2]; crizotinib-resistant model,significantly better than that of brigatinib
same,effect on body weight,"[2]; nude mouse xenograft models (LU-01-0015, NCI-H3122), all P ≥ 0.05",no effect
same,IC50,MAPKAPK2,> 10 µM
same,P-gp inhibitor,P-gp; Caco-2,strong inhibitor
same,inhibition at 0.1 μM,P-gp; [31],-30.9%
same,inhibition at 0.3 μM,P-gp; [31],3.97%
same,inhibition at 1 μM,P-gp; [31],-13.2%
same,inhibition at 3 μM,P-gp; [31],-19.1%
same,inhibition at 10 µM,P-gp; [31],89.8%
same,inhibition at 30 μM,P-gp; [31],98.7%
same,IC50,ABL,0.576 ± 0.108 µM
same,levels of phosphorylation of STAT3 and STAT5 in tumor tissue,[3],decreased
same,inducer of CYP3A4,"CYP3A4; 10 µM, human hepatocytes from three donors",not an inducer
same,induction multiples of CYP3A4 gene expression,"CYP3A4; donor 1, 0.1 µM",0.621 fold
same,induction multiples of CYP3A4 gene expression,"CYP3A4; donor 1, 1 µM",2.99 fold
same,induction multiples of CYP3A4 gene expression,"CYP3A4; donor 1, 10 µM",2.38 fold
same,induction multiples of CYP3A4 gene expression,"CYP3A4; donor 2, 0.1 µM",0.879 fold
same,induction multiples of CYP3A4 gene expression,"CYP3A4; donor 2, 1 µM",1.80 fold
same,induction multiples of CYP3A4 gene expression,"CYP3A4; donor 2, 10 µM",2.81 fold
same,induction multiples of CYP3A4 gene expression,"CYP3A4; donor 3, 0.1 µM",0.964 fold
same,induction multiples of CYP3A4 gene expression,"CYP3A4; donor 3, 1 µM",9.36 fold
same,induction multiples of CYP3A4 gene expression,"CYP3A4; donor 3, 10 µM",1.86 fold
same,IC50,MINK,3.89 ± 1.06 µM
